According to BindingDB's records for doi:10.1016/s0960-894x(01)00591-1 (University of Maryland, 2001):

Molecular target: Guanine deaminase (Oryctolagus cuniculus)
Assay: Binding affinity against Guanine deaminase (guanase) from rabbit liver was determined

N=c1nc(N)nc(N)c2c1N(COCCO)CN2
Ki: 29.7 µM
